Patent publication US20090221538A1, “METHODS OF TREATING MULTIPLE SCLEROSIS BY ADMINISTERING PULSE DOSE CALCITRIOL” (priority 2008, published 2009)

How the values were obtained:
[1] = tested on: B10.PL mice with acute EAE; test: Treatment of MBP-induced acute EAE in B10.PL mice, daily clinical EAE disability score; format: in vivo; design: key to cumulative disability (sum of daily disability scores; mean) / Cumulative disability / EAE severity (initial) / Remission (minimum) / EAE severity (final) / EAE severity (decrease): EAE score 0 = normal to 5 = moribund; cumulative = sum of daily scores
Experimental: Breeding pairs of B10.PL-H2^uH2-T18^a/(73NS)/SnJ (hereafter B10.PL) mice were purchased from the Jackson Laboratory (Bar Harbor, Me.). The experimental B10.PL mice were either bred in the pathogen-free mouse colony at the University of Wisconsin Department of Biochemistry, or purchased from the Jackson Laboratory. Mice were housed at 23° C. with 40-60% humidity, 12 hr light-dark cycles, and ad libidum access to water. Unless stated otherwise, the mice were fed Lab Diet #5008 (PMI Nutrition International, Inc., Brentwood, Mo.) containing 0.33 μg/d vitamin D3 and 1% calcium. Experiments used male and female mice aged 6-8 wks (age- and sex-matched within experiments). The University of Wisconsin College of Agricultural and Life Sciences Institutional Animal Care and Use Committee approved all of the experimental protocols.
Bovine myelin basic protein (Sigma Chemical Co., St. Louis, Mo.) was dissolved at 2 mg/mL in 0.1 N acetic acid and emulsified with Complete Freund's adjuvant containing heat-killed Mycobacterium tuberculosis H37 Ra solution (Difco). Each mouse was injected subcutaneously with 0.1 mL emulsion in each hind flank (400 micrograms of MBP per mouse). On the day of immunization and again 2 days later, 200 nanograms of pertussis toxin was injected into the peritoneum. Thereafter, clinical EAE signs were scored daily as follows: 0, normal; 1, limp tail; 1.5, partial paralysis of one hind limb; 2, partial paralysis of both hind limbs; 2.5 partial paralysis of one hind limb and complete paralysis of one hind limb; 3, paralysis of both hind limbs; 4, hind and fore limb paralysis; 5, moribund.
The vitamin D3 and 1,25-(OH)2D3 were obtained from Sigma Chemical Co. The vitamin D3 was dissolved in safflower oil and stored in the dark at 5° C. The 1,25-(OH)2D3 was dissolved in 100% ethanol (1 mg/mL) and stored in the dark under nitrogen gas at −20° C. The concentration of 1,25-(OH)2D3 was determined by spectral analysis. Animals with stage 2.3±0.3 were randomized into treatment groups. The details of the treatments are given in the figure legends and table footnotes. The synthetic diet used in some experiments was formulated to contain all essential nutrients except vitamin D3 and was prepared exactly as we described (Spach and Hayes, 2005, J. Immunol. 175:4119-4126). For experiments using supplementary vitamin D3, the placebo group was fed the synthetic diet ad libidum without added vitamin D3, whereas the vitamin D3-supplemented group was fed the synthetic diet ad libidum with vitamin D3 added in an amount to provide 1 μg/d, calculated based on a daily measured consumption of 4.0 g dry weight of diet per mouse. Fresh synthetic diet was provided three times per week. At several times during the study, mice were weighed and blood samples were obtained from the tail vein. At the conclusion of the study, the mice were euthanized, a blood sample was obtained, perfusion was done, and the spinal cords and optic nerves were removed. The spinal cords were flash frozen with liquid nitrogen and stored at −70° C. prior to 1,25-(OH)2D3 extraction. Alternatively, the spinal cords were divided into 6 equal sections, aligned vertically, snap frozen in O.C.T. compound (Sakura Finetek USA, Torrance, Calif.) and stored at −70° C. for histopathology. The blood was clotted, centrifuged, and the decanted serum was frozen at −70° C. prior to analysis.
Individual mice were analyzed and the mean and SD were calculated for each group of mice. Experiments were repeated at least once. The significance of differences between the group means was determined using the Mann-Whitney test (n≦16), Student's t-test (n>16), or Chi-squared test (binomial data); p<0.05 was considered significant.

Serum calcium analysis = format: in vivo, mouse; details: mice with EAE, 1 μg/day vitamin D3, end of the 28 day study
Experimental: Blood was collected, clotted, and centrifuged (2,000×g for 10 min) at 6° C. The serum was decanted and stored at −20° C. The samples, standards, and buffer blanks (2 μL each) were aliquoted into duplicate wells of a 96-well plate. The calcium detection reagent was prepared according to the manufacturer's directions (Sigma Diagnostics. St. Louis, Mo.), and 0.25 mL was added to each well. The absorbance at 570 nm less the blank was measured 10 to 30 min later. The Ca^++ mmol/L serum was determined from a standard curve.

[2] = Serum 25-(OH)D3 radioimmunoassay; details: mice with EAE (score 1.5±0.5), 1 μg/day vitamin D3, end of the 28 day study
Experimental: The serum was extracted and the 25-(OH)D3 (DiaSorin, Stillwater, Minn.) and calcitriol (Nichols Institute Diagnostics, San Juan Capistrano, Calif.) concentrations were determined in duplicate with radioimmunoassay kits according to the manufacturer's protocols.

MS = details: cited from earlier work
[3] = female and male B10.PL mice, chow-fed, 0.5 (female) or 1.0 (male) nmol injected once, 14 days post treatment

Which results are given for C[C@H]1C[C@@H]2[C@H]([C@@H](O)C[C@@]3(C)[C@H]2CC[C@]3(O)C(=O)CO)[C@@]2(C)C=CC(=O)C=C12 [Methyl-prednisolone]?
mice in which remission was induced ([1]; chow-fed male and female mice with EAE (score 2.3±0.4), 200 μg/d oral methyl-prednisolone): 100%; time to remission ([1]; chow-fed male and female mice with EAE, 200 μg/d oral methyl-prednisolone): 6 ± 2 days; Cumulative disability [1, 3]: 24.8 ± 6.9; EAE severity (decrease) [1, 3]: 0.8 ± 0.7; Remission (%) [1, 3]: 40%; Remission (days in) [1, 3]: 3.0 ± 4.1 days; Remission (days to) [1, 3]: 3.0 ± 0.0 days; EAE severity (initial) ([1]; female and male B10.PL mice, chow-fed, 0.5 (female) or 1.0 (male) nmol of steroid compound injected once, score at randomization): 2.0 ± 0.0

What does the source list for C=C1CC[C@H](O)C/C1=C/C=C1\CCC[C@]2(C)[C@@H]([C@H](C)CCCC(C)C)CC[C@@H]12 [vitamin D3]?
effect on clinical disability in mice with EAE ([1]; 1 μg/day vitamin D3, 28 day study): no effect; cumulative disability (sum of daily disability scores; mean) ([1]; mice with EAE, 1 μg/day vitamin D3, 28 day study, both groups): 71±18; mortality ([1]; mice with EAE, 1 μg/day vitamin D3, 28 day study, both groups (supplemented and un-supplemented)): 9-14%; serum calcium levels (Serum calcium analysis): 9.6 ± 1.5 mg/dL; serum 25-(OH)D3 [2]: 8217 nmol/L

For “Natalizumab: an integrin-specific monoclonal antibody (mAb)”, which adverse risks (MS; human, in vivo) is on record?
Its adverse risks is “increased the risk of cardiac problems and fatal progressive multifocal leukoencephalopathy”.

What about the “slowing of disability progression” value (MS; over two years) of the same molecule?
Its value is ~42%.

Which disability progression (MS; RRMS, PPMS or SPMS patients) does the source give for glatiramer acetate here?
Its disability progression is “did not slow disability progression”.

And the “reduction of the relapse rate” value (MS; some relapsing-remitting MS (RRMS))?
Its value is ~35%.
